Article PMC5218480 (PLoS ONE, 2017)

Test system: MV-4-11 cells
Experiment: Gene expression microarray analysis (Affymetrix PrimeView) and GSEA
Assay type: cell-based, human
Parameters: RFU PODN (11730768_x_at) / Fold change /veh PODN (11730768_x_at) / RFU LINC00158 (11744669_a_at) / Fold change /veh LINC00158 (11744669_a_at) / RFU DUSP10 (11751237_a_at) / Fold change /veh DUSP10 (11751237_a_at) / RFU ID3 (11757404_x_at) / Fold change /veh ID3 (11757404_x_at) / RFU PLEKHG5 (11737974_s_at) / Fold change /veh PLEKHG5 (11737974_s_at) / RFU LRRC4B (11730491_at) / Fold change /veh LRRC4B (11730491_at) / RFU GIMAP4 (11747438_a_at) / Fold change /veh GIMAP4 (11747438_a_at) / RFU KRT8 (11758183_x_at) / Fold change /veh KRT8 (11758183_x_at) / RFU CNN1 (11734310_a_at) / Fold change /veh CNN1 (11734310_a_at) / RFU VPS37D (11726825_at) / Fold change /veh VPS37D (11726825_at) / RFU C10orf10 (11716522_x_at) / Fold change /veh C10orf10 (11716522_x_at) / RFU KIR2DL2 /// KIR2DL4 /// KIR2DL5A /// KIR2DL5B /// KIR2DS1 /// KIR2DS2 /// KIR2DS3 /// KIR2DS4 /// KIR3DL3 /// KIR3DL3 /// KIR3DS1 (11738374_at) / Fold change /veh KIR2DL2 /// KIR2DL4 /// KIR2DL5A /// KIR2DL5B /// KIR2DS1 /// KIR2DS2 /// KIR2DS3 /// KIR2DS4 /// KIR3DL3 /// KIR3DL3 /// KIR3DS1 (11738374_at) / RFU C1QL1 (11718748_at) / Fold change /veh C1QL1 (11718748_at) / RFU TMPRSS4 (11747572_a_at) / Fold change /veh TMPRSS4 (11747572_a_at) / RFU HAMP (11756126_x_at) / Fold change /veh HAMP (11756126_x_at) / RFU RNFT2 (11725882_a_at) / Fold change /veh RNFT2 (11725882_a_at) / RFU NR4A2 (11747474_a_at) / Fold change /veh NR4A2 (11747474_a_at) / RFU ABCC12 (11746883_a_at) / Fold change /veh ABCC12 (11746883_a_at) / RFU TMEM136 (11760407_x_at) / Fold change /veh TMEM136 (11760407_x_at) / RFU CLDN22 /// WWC2 (11732394_at) / Fold change /veh CLDN22 /// WWC2 (11732394_at) / RFU HLA-DPB1 (11760878_x_at) / Fold change /veh HLA-DPB1 (11760878_x_at) / RFU SPINT1 (11716480_a_at) / Fold change /veh SPINT1 (11716480_a_at) / RFU GAP43 (11754022_s_at) / Fold change /veh GAP43 (11754022_s_at) / RFU A4GNT (11735810_at) / Fold change /veh A4GNT (11735810_at) / RFU PRB3 (11715151_x_at) / Fold change /veh PRB3 (11715151_x_at) / RFU TUBB4B (11761932_at) / Fold change /veh TUBB4B (11761932_at) / RFU CAPN14 (11732068_a_at) / Fold change /veh CAPN14 (11732068_a_at) / RFU TMCC2 (11721928_a_at) / Fold change /veh TMCC2 (11721928_a_at) / RFU IRGQ (11745062_a_at) / Fold change /veh IRGQ (11745062_a_at) / RFU FAM174B (11720279_a_at) / Fold change /veh FAM174B (11720279_a_at) / RFU TMPRSS4 (11748680_a_at) / Fold change /veh TMPRSS4 (11748680_a_at) / RFU FAM212B (11763350_a_at) / Fold change /veh FAM212B (11763350_a_at) / RFU PLEKHG5 (11743358_a_at) / Fold change /veh PLEKHG5 (11743358_a_at) / RFU ZSCAN30 (11745921_a_at) / Fold change /veh ZSCAN30 (11745921_a_at) / RFU CMKLR1 (11741424_a_at) / Fold change /veh CMKLR1 (11741424_a_at) / RFU LOC101060620 /// MAPK8IP1 (11723275_at) / Fold change /veh LOC101060620 /// MAPK8IP1 (11723275_at) / RFU SPTSSB (11747773_x_at) / Fold change /veh SPTSSB (11747773_x_at) / RFU PRSS12 (11739890_at) / Fold change /veh PRSS12 (11739890_at) / RFU BIN1 (11741810_x_at) / Fold change /veh BIN1 (11741810_x_at) / RFU WNT11 (11732464_a_at) / Fold change /veh WNT11 (11732464_a_at) / RFU C10orf10 (11716521_a_at) / Fold change /veh C10orf10 (11716521_a_at) / RFU C5orf56 (11738089_at) / Fold change /veh C5orf56 (11738089_at) / RFU CYB561 (11721691_x_at) / Fold change /veh CYB561 (11721691_x_at) / RFU ANKRD19P (11752326_a_at) / Fold change /veh ANKRD19P (11752326_a_at) / RFU OR2T12 /// OR2T33 /// OR2T8 (11738714_s_at) / Fold change /veh OR2T12 /// OR2T33 /// OR2T8 (11738714_s_at) / RFU VCAN (11748164_a_at) / Fold change /veh VCAN (11748164_a_at) / RFU JSRP1 (11732532_at) / Fold change /veh JSRP1 (11732532_at) / RFU KRTAP10-11 (11738290_x_at) / Fold change /veh KRTAP10-11 (11738290_x_at) / RFU MYO3A (11730013_a_at) / Fold change /veh MYO3A (11730013_a_at) / RFU EBF3 (11725865_a_at) / Fold change /veh EBF3 (11725865_a_at) / RFU CAMK2N1 (11719241_x_at) / Fold change /veh CAMK2N1 (11719241_x_at) / RFU C5orf56 (11738088_a_at) / Fold change /veh C5orf56 (11738088_a_at) / RFU OLFML3 (11715873_a_at) / Fold change /veh OLFML3 (11715873_a_at) / RFU LOC100653217 /// NTM (11731650_a_at) / Fold change /veh LOC100653217 /// NTM (11731650_a_at) / RFU MAPK11 (11762145_a_at) / Fold change /veh MAPK11 (11762145_a_at) / RFU FIZ1 (11724087_x_at) / Fold change /veh FIZ1 (11724087_x_at) / RFU OASL (11726364_x_at) / Fold change /veh OASL (11726364_x_at) / RFU SOX15 (11748057_x_at) / Fold change /veh SOX15 (11748057_x_at) / RFU CD79A (11719716_a_at) / Fold change /veh CD79A (11719716_a_at) / RFU HIST1H1D (11736915_at) / Fold change /veh HIST1H1D (11736915_at) / RFU CASKIN2 (11723855_a_at) / Fold change /veh CASKIN2 (11723855_a_at) / RFU LOC730098 (11760151_x_at) / Fold change /veh LOC730098 (11760151_x_at) / RFU OR4N2 (11742367_at) / Fold change /veh OR4N2 (11742367_at) / RFU PRRT2 (11749266_a_at) / Fold change /veh PRRT2 (11749266_a_at) / RFU SNX32 (11753110_a_at) / Fold change /veh SNX32 (11753110_a_at) / RFU CDHR5 (11726645_a_at) / Fold change /veh CDHR5 (11726645_a_at) / RFU RCAN1 (11760418_a_at) / Fold change /veh RCAN1 (11760418_a_at) / RFU FAM167A (11723789_a_at) / Fold change /veh FAM167A (11723789_a_at) / RFU FAM26E (11764081_at) / Fold change /veh FAM26E (11764081_at) / RFU ISYNA1 (11749810_s_at) / Fold change /veh ISYNA1 (11749810_s_at) / RFU ACY1 (11761880_at) / Fold change /veh ACY1 (11761880_at) / RFU 11764098_at / Fold change /veh 11764098_at / RFU SAMD14 (11745864_x_at) / Fold change /veh SAMD14 (11745864_x_at) / RFU NPB (11741838_a_at) / Fold change /veh NPB (11741838_a_at) / RFU TMPRSS6 (11731388_a_at) / Fold change /veh TMPRSS6 (11731388_a_at) / RFU KRTAP10-2 (11738614_at) / Fold change /veh KRTAP10-2 (11738614_at) / RFU ARHGAP8 /// PRR5-ARHGAP8 (11727945_x_at) / Fold change /veh ARHGAP8 /// PRR5-ARHGAP8 (11727945_x_at) / RFU KRTAP5-7 /// NADSYN1 (11734609_at) / Fold change /veh KRTAP5-7 /// NADSYN1 (11734609_at) / RFU RASL12 (11751679_a_at) / Fold change /veh RASL12 (11751679_a_at) / RFU CDKN2B (11736163_a_at) / Fold change /veh CDKN2B (11736163_a_at) / RFU PRF1 (11729649_at) / Fold change /veh PRF1 (11729649_at) / RFU, ZNF638 /// ZNF638-IT1 / Fold change vs veh, ZNF638 /// ZNF638-IT1 / RFU, PANK3 / Fold change vs veh, PANK3 / RFU, SH3YL1 / Fold change vs veh, SH3YL1 / RFU, ZEB2 / Fold change vs veh, ZEB2 / RFU, NRIP1 / Fold change vs veh, NRIP1 / RFU, PTTG1IP / Fold change vs veh, PTTG1IP / RFU, CAPN2 / Fold change vs veh, CAPN2 / RFU, MED14 / Fold change vs veh, MED14 / RFU, SNORA58 / Fold change vs veh, SNORA58 / RFU, C1orf63 / Fold change vs veh, C1orf63 / RFU, LRRFIP1 / Fold change vs veh, LRRFIP1 / RFU, NDUFAF7 / Fold change vs veh, NDUFAF7 / RFU, SLC12A2 / Fold change vs veh, SLC12A2 / RFU, IBTK / Fold change vs veh, IBTK / RFU, ESF1 / Fold change vs veh, ESF1 / Fold change vs veh, TMEM50B / RFU, TAOK1 / Fold change vs veh, TAOK1 / RFU, ACBD3 / Fold change vs veh, ACBD3 / RFU, TMA16 / Fold change vs veh, TMA16 / RFU, RWDD3 / Fold change vs veh, RWDD3 / RFU, BCAT1 / Fold change vs veh, BCAT1 / RFU, EDEM3 / Fold change vs veh, EDEM3 / RFU, TMEM33 / Fold change vs veh, TMEM33 / RFU, WDR75 / Fold change vs veh, WDR75 / RFU, AHCTF1 / Fold change vs veh, AHCTF1 / RFU, TFRC / Fold change vs veh, TFRC / RFU, ZDHHC17 / Fold change vs veh, ZDHHC17 / RFU, NOM1 / Fold change vs veh, NOM1 / RFU, ARL8B / Fold change vs veh, ARL8B / RFU, ZBTB11 / Fold change vs veh, ZBTB11 / RFU, TAMM41 / Fold change vs veh, TAMM41 / RFU, KIAA1704 /// LOC100996395 / Fold change vs veh, KIAA1704 /// LOC100996395 / RFU, ING1 / Fold change vs veh, ING1 / RFU, TRMT61B / Fold change vs veh, TRMT61B / RFU, FUBP3 / Fold change vs veh, FUBP3 / RFU, TP53 / Fold change vs veh, TP53 / RFU, TNKS2 / Fold change vs veh, TNKS2 / RFU, ZFP14 / Fold change vs veh, ZFP14 / RFU, ACTR2 / Fold change vs veh, ACTR2 / RFU, PPP3R1 / Fold change vs veh, PPP3R1 / RFU, PIK3R1 / Fold change vs veh, PIK3R1 / RFU, HNRNPA1 / Fold change vs veh, HNRNPA1 / RFU, RNF170 / Fold change vs veh, RNF170 / RFU, ZNF28 / Fold change vs veh, ZNF28 / RFU, RNGTT / Fold change vs veh, RNGTT / RFU, OGT / Fold change vs veh, OGT / RFU, BRD1 / Fold change vs veh, BRD1 / RFU, MARS / Fold change vs veh, MARS / RFU, ZNF655 / Fold change vs veh, ZNF655 / RFU, FAHD1 / Fold change vs veh, FAHD1 / RFU, BDP1 / Fold change vs veh, BDP1 / RFU, LRRCC1 / Fold change vs veh, LRRCC1 / RFU, ARID1A / Fold change vs veh, ARID1A / RFU, ZNF146 / Fold change vs veh, ZNF146 / RFU, ZNF330 / Fold change vs veh, ZNF330 / RFU, GPN3 / Fold change vs veh, GPN3 / RFU, C9orf123 / Fold change vs veh, C9orf123 / RFU, N4BP2L2 / Fold change vs veh, N4BP2L2 / RFU, ARFIP1 / Fold change vs veh, ARFIP1 / RFU, FAM179B / Fold change vs veh, FAM179B / RFU, BCL10 / Fold change vs veh, BCL10 / RFU, UHRF1BP1L / Fold change vs veh, UHRF1BP1L / RFU, BET1 / Fold change vs veh, BET1 / RFU, CNOT2 / Fold change vs veh, CNOT2 / RFU, ZNF268 / Fold change vs veh, ZNF268 / Fold change vs veh, ZNF507 / RFU, DGCR2 / Fold change vs veh, DGCR2 / RFU, WDSUB1 / Fold change vs veh, WDSUB1 / Fold change vs veh, HSP90B1 /// MIR3652 / RFU, ADSS / Fold change vs veh, ADSS / RFU, GK / Fold change vs veh, GK / RFU, ZNF148 / Fold change vs veh, ZNF148 / RFU, TAF9 / Fold change vs veh, TAF9 / RFU, SLC1A5 / Fold change vs veh, SLC1A5 / RFU, SLMO2 / Fold change vs veh, SLMO2 / RFU, ABCC4 / Fold change vs veh, ABCC4 / RFU, LOC101060439 /// RAP1B / Fold change vs veh, LOC101060439 /// RAP1B / RFU, RFX7 / Fold change vs veh, RFX7 / RFU, GTPBP10 / Fold change vs veh, GTPBP10 / RFU, CNEP1R1 / Fold change vs veh, CNEP1R1 / RFU, BIVM-ERCC5 /// ERCC5 / Fold change vs veh, BIVM-ERCC5 /// ERCC5 / RFU, ILF3 / Fold change vs veh, ILF3 / RFU 11762660_at / Fold change /veh 11762660_at / RFU VCAN (11757783_s_at) / Fold change /veh VCAN (11757783_s_at) / RFU DDX43 (11728927_at) / Fold change /veh DDX43 (11728927_at) / RFU KRT8 (11758188_x_at) / Fold change /veh KRT8 (11758188_x_at) / RFU NKD1 (11759106_at) / Fold change /veh NKD1 (11759106_at) / RFU SRD5A1 (11742802_a_at) / Fold change /veh SRD5A1 (11742802_a_at) / RFU TPSAB1 /// TPSB2 (11721975_s_at) / Fold change /veh TPSAB1 /// TPSB2 (11721975_s_at) / RFU GSTM3 (11746129_a_at) / Fold change /veh GSTM3 (11746129_a_at) / RFU IL23R (11737362_x_at) / Fold change /veh IL23R (11737362_x_at) / RFU TMEM51 (11727254_a_at) / Fold change /veh TMEM51 (11727254_a_at) / RFU PIWIL2 (11732686_x_at) / Fold change /veh PIWIL2 (11732686_x_at) / RFU ORM1 (11744905_x_at) / Fold change /veh ORM1 (11744905_x_at) / RFU CCDC152 (11743942_at) / Fold change /veh CCDC152 (11743942_at) / RFU ECM1 (11717891_a_at) / Fold change /veh ECM1 (11717891_a_at) / RFU IL23R (11748794_a_at) / Fold change /veh IL23R (11748794_a_at) / RFU TNFAIP8L3 (11732012_x_at) / Fold change /veh TNFAIP8L3 (11732012_x_at) / RFU MBOAT4 (11741988_at) / Fold change /veh MBOAT4 (11741988_at) / RFU 11764193_at / Fold change /veh 11764193_at / RFU TMEM53 (11763286_at) / Fold change /veh TMEM53 (11763286_at) / RFU MAGEB2 (11727129_at) / Fold change /veh MAGEB2 (11727129_at) / RFU TMEM200A (11744735_a_at) / Fold change /veh TMEM200A (11744735_a_at) / RFU CCDC152 (11751479_a_at) / Fold change /veh CCDC152 (11751479_a_at) / RFU FAM211A (11726209_a_at) / Fold change /veh FAM211A (11726209_a_at) / RFU RGS16 (11746705_a_at) / Fold change /veh RGS16 (11746705_a_at) / RFU VCAN (11755009_s_at) / Fold change /veh VCAN (11755009_s_at) / RFU RHOB (11743442_s_at) / Fold change /veh RHOB (11743442_s_at) / RFU RGS16 (11720943_a_at) / Fold change /veh RGS16 (11720943_a_at) / RFU RGS16 (11720944_at) / Fold change /veh RGS16 (11720944_at) / RFU, VPS4B / Fold change vs veh, VPS4B / RFU, CREB1 / Fold change vs veh, CREB1 / RFU, DNAJC13 / Fold change vs veh, DNAJC13 / RFU, GNAQ / Fold change vs veh, GNAQ / RFU, CDK5R1 / Fold change vs veh, CDK5R1 / RFU, ZRANB3 / Fold change vs veh, ZRANB3 / RFU, CUL4A / Fold change vs veh, CUL4A / RFU, CCNY / Fold change vs veh, CCNY / RFU, UFL1 / Fold change vs veh, UFL1 / RFU, COG3 / Fold change vs veh, COG3 / RFU, DIAPH2 / Fold change vs veh, DIAPH2 / RFU, SKA2 / Fold change vs veh, SKA2 / RFU, AFF3 / Fold change vs veh, AFF3 / RFU, LMF1 / Fold change vs veh, LMF1 / RFU, IPO11 / Fold change vs veh, IPO11 / RFU, DFFB / Fold change vs veh, DFFB / RFU, FOXP1 / Fold change vs veh, FOXP1 / RFU, CARD8 / Fold change vs veh, CARD8 / RFU, STRN3 / Fold change vs veh, STRN3 / RFU, ADK / Fold change vs veh, ADK / RFU, RASSF2 / Fold change vs veh, RASSF2 / RFU, WIPF1 / Fold change vs veh, WIPF1 / RFU, LARP1B / Fold change vs veh, LARP1B / RFU, RASA1 / Fold change vs veh, RASA1 / RFU, RB1 / Fold change vs veh, RB1 / RFU, PPFIA1 / Fold change vs veh, PPFIA1 / RFU, MAT2A / Fold change vs veh, MAT2A / RFU, CCT5 / Fold change vs veh, CCT5 / RFU, WDR92 / Fold change vs veh, WDR92 / RFU, CUX1 / Fold change vs veh, CUX1 / RFU, TTC7A / Fold change vs veh, TTC7A / RFU, TMEM135 / Fold change vs veh, TMEM135 / RFU, DEPTOR / Fold change vs veh, DEPTOR / RFU, CPM / Fold change vs veh, CPM / RFU, DNAJB6 / Fold change vs veh, DNAJB6 / RFU, CACNA2D3 / Fold change vs veh, CACNA2D3 / RFU, DTX4 / Fold change vs veh, DTX4 / RFU, TFCP2 / Fold change vs veh, TFCP2 / RFU, GMCL1 /// GMCL1P1 / Fold change vs veh, GMCL1 /// GMCL1P1 / RFU, AEBP2 / Fold change vs veh, AEBP2 / RFU, SNHG1 /// SNORD22 /// SNORD25 /// SNORD26 /// SNORD27 /// SNORD28 /// SNORD29 /// SNORD31 / Fold change vs veh, SNHG1 /// SNORD22 /// SNORD25 /// SNORD26 /// SNORD27 /// SNORD28 /// SNORD29 /// SNORD31 / Fold change (Aza/veh), C12orf56 (ProbeSet 11735607_a_at) / Fold change (ACY-1035/veh), C12orf56 (ProbeSet 11735607_a_at) / Fold change (Aza/veh), FGFR1OP (ProbeSet 11751329_s_at) / Fold change (ACY-1035/veh), FGFR1OP (ProbeSet 11751329_s_at) / Fold change (Aza/veh), VPS36 (ProbeSet 11739960_a_at) / Fold change (ACY-1035/veh), VPS36 (ProbeSet 11739960_a_at) / RFU SYPL1 (11715823_x_at) / Fold change /veh SYPL1 (11715823_x_at) / RFU IGFBP7 (11715501_s_at) / Fold change /veh IGFBP7 (11715501_s_at) / RFU REEP3 (11722064_at) / Fold change /veh REEP3 (11722064_at) / RFU IGLL1 (11728026_x_at) / Fold change /veh IGLL1 (11728026_x_at): dose or concentration left out as unconfirmed
Details: ProbeSet 11721559_s_at; LIST B

In the case of Nc1ncn([C@@H]2O[C@H](CO)[C@@H](O)[C@H]2O)c(=O)n1 [azacitidine], the “Fold change vs veh, ZNF638 /// ZNF638-IT1” value is reported as 0.91.
